The values that follow come from PubChem BioAssay AID330 (DTP/NCI, 2004).

Molecules are shown by their SMILES. Where “and” joins values, the source holds several entries; their conditions need not be identical. Equal entries are not always repeated. Toxic doses and inconclusive results are not listed. Peptide text beside a SMILES is read from it. * marks the point of attachment. Boc = CC(C)(C)OC(=O)*; OtBu = CC(C)(C)O*

This assay concerns P388 leukemia ip, CD2F1 mice, survival T/C. As to the kind of experiment: NCI In Vivo Anticancer Drug Screen. Data for tumor model P388 Leukemia (intraperitoneal) in CD2F1 (CDF1) mice. As to conditions: endpoint: median survival time, higher = longer survival. The method in brief: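 Mice carrying the transplanted tumor received test compound or vehicle. Survival was recorded in each group, and the value is the treated-group measurement divided by that of the vehicle-treated control group.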

Where [1] appears, read: dose: 50.0 mg/kg/injection, schedule: Q01DX005 (ip), vehicle: saline with Tween-80.
Where [2] appears, read: dose: 100.0 mg/kg/injection, schedule: Q01DX005 (ip), vehicle: saline with Tween-80.
[3] abbreviates: dose: 200.0 mg/kg/injection, schedule: Q01DX005 (ip), vehicle: saline with Tween-80.
[4] abbreviates: dose: 50.0 mg/kg/injection, schedule: Q01DX005 (ip), vehicle: Klucel (hydroxypropylcellulose) (HPC).
Where [5] appears, read: dose: 100.0 mg/kg/injection, schedule: Q01DX005 (ip), vehicle: Klucel (hydroxypropylcellulose) (HPC).
The mark [6] stands for this setting: dose: 200.0 mg/kg/injection, schedule: Q01DX005 (ip), vehicle: Klucel (hydroxypropylcellulose) (HPC).
Where [7] appears, read: dose: 100.0 mg/kg/injection, schedule: Q01DX009 (ip), vehicle: saline with Tween-80.
[8] abbreviates: dose: 200.0 mg/kg/injection, schedule: Q01DX009 (ip), vehicle: saline with Tween-80.

On to `NC(Cc1ccc(OC(c2ccccc2)(c2ccccc2)c2ccccc2)cc1)C(=O)O` (stereo not drawn), for which the T/C (dose: 50.0 mg/kg/injection, schedule: Q01DX009 (ip), vehicle: saline) was 101 % of control; the T/C (dose: 100.0 mg/kg/injection, schedule: Q01DX009 (ip), vehicle: saline) is 96 % of control; the T/C (dose: 200.0 mg/kg/injection, schedule: Q01DX009 (ip), vehicle: saline) is 90 % of control.

As for `O=C(CNC(=O)C(Cc1c[nH]c2ccccc12)NC(=O)OCc1ccccc1)NCC(=O)OCc1ccccc1` (stereo not drawn), the T/C under setting [1] is 104 % of control, the T/C under setting [2] is 100 % of control and the T/C under setting [3] is 110 % of control.

Consider `CN1CCCN(C)C1c1ccccc1O`, for which the T/C is, setting by setting: (dose: 12.5 mg/kg/injection, schedule: Q01DX009 (ip), vehicle: saline sonified) 100 % of control; (dose: 25.0 mg/kg/injection, schedule: Q01DX009 (ip), vehicle: saline sonified) 90 % of control; (dose: 50.0 mg/kg/injection, schedule: Q01DX009 (ip), vehicle: saline sonified) 100 % of control.

As for `COc1cc(C(=O)C(C=O)c2ccccc2)c([N+](=O)[O-])cc1OC` (stereo not drawn), the T/C by setting is: under setting [4], 94 % of control; under setting [5], 98 % of control; under setting [6], 92 % of control.

With `CSCCC(NC(=O)OC(C)(C)C)C(=O)NC(Cc1ccccc1)C(=O)NCC(=O)OC(C)(C)C` (stereo not drawn) (Boc-Met-Phe-Gly-OtBu; configuration not given here), the T/C is, setting by setting: under setting [4], 93 % of control; under setting [5], 97 % of control; under setting [6], 107 % of control.

As for `CC1(c2ccccc2)NC(=O)N(CC(=O)N(c2ccccc2)c2ccccc2)C1=O` (stereo not drawn), the T/C is 91 % of control (dose: 7.5 mg/kg/injection, schedule: Q01DX005 (ip), vehicle: saline with Tween-80); 92 % of control (dose: 15.0 mg/kg/injection, schedule: Q01DX005 (ip), vehicle: saline with Tween-80); 92 % of control and 93 % of control (dose: 30.0 mg/kg/injection, schedule: Q01DX005 (ip), vehicle: saline with Tween-80); 87 % of control and 88 % of control (dose: 60.0 mg/kg/injection, schedule: Q01DX005 (ip), vehicle: saline with Tween-80); 86 % of control (dose: 120.0 mg/kg/injection, schedule: Q01DX005 (ip), vehicle: saline with Tween-80); 94 % of control (dose: 240.0 mg/kg/injection, schedule: Q01DX005 (ip), vehicle: saline with Tween-80).

As to `O=C1/C(=C/c2cccc3ccccc23)SC(=S)N1Cc1ccco1`, the T/C by setting is: (dose: 50.0 mg/kg/injection, schedule: Q01DX009 (ip), vehicle: saline with Tween-80) 92 % of control; under setting [7], 92 % of control; under setting [8], 99 % of control.

As to `Cc1cc(Br)ccc1N1CSC(=S)N(c2ccc(Br)cc2C)C1`, the T/C runs as follows: under setting [1], 88 % of control; under setting [2], 90 % of control; under setting [3], 93 % of control.

As to `CC(C)C(Br)C(N)=O` (stereo not drawn), the T/C is, setting by setting: (dose: 100.0 mg/kg/injection, schedule: Q04DX002 (ip), vehicle: Klucel (hydroxypropylcellulose) (HPC)) 100 % of control; (dose: 200.0 mg/kg/injection, schedule: Q04DX002 (ip), vehicle: Klucel (hydroxypropylcellulose) (HPC)) 103 % of control; (dose: 400.0 mg/kg/injection, schedule: Q04DX002 (ip), vehicle: Klucel (hydroxypropylcellulose) (HPC)) 105 % of control.

For the molecule `CCCCCCCCCCCCCCP(I)(N(C)C)(N(C)C)N(C)C`, the T/C (dose: 0.1 mg/kg/injection, schedule: Q01DX009 (ip), vehicle: saline with Tween-80) was 106 % of control; the T/C (dose: 0.19 mg/kg/injection, schedule: Q01DX009 (ip), vehicle: saline with Tween-80) was 113 % of control; the T/C (dose: 0.38 mg/kg/injection, schedule: Q01DX009 (ip), vehicle: saline with Tween-80) is 117 % of control.

As to `CC1=C(O)COc2cc(C)ccc21`, the T/C was 102 % of control (dose: 100.0 mg/kg/injection, schedule: Q01DX001 (ip), vehicle: saline); 100 % of control (dose: 200.0 mg/kg/injection, schedule: Q01DX001 (ip), vehicle: saline); 100 % of control (dose: 400.0 mg/kg/injection, schedule: Q01DX001 (ip), vehicle: saline).

`COc1ccc2ccc(C=O)cc2c1OC`: the T/C (dose: 25.0 mg/kg/injection, schedule: Q01DX009 (ip), vehicle: other) is 104 % of control; the T/C (dose: 50.0 mg/kg/injection, schedule: Q01DX009 (ip), vehicle: other) is 95 % of control; the T/C (dose: 100.0 mg/kg/injection, schedule: Q01DX009 (ip), vehicle: other) was 103 % of control; the T/C (dose: 200.0 mg/kg/injection, schedule: Q01DX009 (ip), vehicle: other) is 97 % of control; the T/C (dose: 400.0 mg/kg/injection, schedule: Q01DX009 (ip), vehicle: other) was 112 % of control.

For `c1nnc2c3c4c(sc3ncn12)CCCC4`, the T/C is 97 % of control under setting [1] and 91 % of control under setting [2].

`CC(C)c1cccc(C(C)C)c1NC(=O)CCc1n[nH]c(=S)o1`: the T/C runs as follows: under setting [1], 105 % of control; under setting [2], 106 % of control; under setting [3], 105 % of control.

Consider `O=C(O)CSC(c1ccccc1)(c1ccc(-c2ccccc2)cc1)c1cccc2ccccc12` (stereo not drawn), for which the T/C runs as follows: under setting [1], 95 % of control; under setting [2], 109 % of control; under setting [3], 109 % of control.

On to `COc1ccc2c(c1OC)CC(C(=O)O)=C2C`, for which the T/C was 99 % of control under setting [1], 94 % of control under setting [2] and 99 % of control under setting [3].

Regarding `COc1cc(C(O)C(CO)Oc2c(OC)cc(C3OCC4C(c5cc(OC)c(O)c(OC)c5)OCC34)cc2OC)ccc1O` (stereo not drawn), the T/C reads like this: (dose: 5.0 mg/kg/injection, schedule: Q01DX005 (ip), vehicle: sodium bicarbonate) 107 % of control; (dose: 10.0 mg/kg/injection, schedule: Q01DX005 (ip), vehicle: sodium bicarbonate) 109 % of control; (dose: 20.0 mg/kg/injection, schedule: Q01DX005 (ip), vehicle: sodium bicarbonate) 106 % of control; (dose: 40.0 mg/kg/injection, schedule: Q01DX005 (ip), vehicle: sodium bicarbonate) 100 % of control.

As for `CCC1C(=O)OCc2c1cc1n(c2=O)Cc2ccccc2-1` (stereo not drawn), the T/C reads like this: (dose: 100.0 mg/kg/injection, schedule: Q01DX001 (ip), vehicle: saline with Tween-80) 97 % of control; (dose: 200.0 mg/kg/injection, schedule: Q01DX001 (ip), vehicle: saline with Tween-80) 92 % of control; (dose: 400.0 mg/kg/injection, schedule: Q01DX001 (ip), vehicle: saline with Tween-80) 90 % of control.

As to `OC1(C(O)(c2ccc(-c3ccccc3)cc2)c2ccc(-c3ccccc3)cc2)CCCCC1`, the T/C was 90 % of control under setting [1] and 87 % of control under setting [2].

Take `CC(=O)c1cccc(NC2C(N)C(NC(=O)N(C)C)(C(C)O)C(C)(O)C2(O)COC(=O)c2c(C)cccc2O)c1` (stereo not drawn): the T/C was 86 % of control (dose: 0.5 mg/kg/injection, schedule: Q01DX009 (ip), vehicle: other); 153 % of control (dose: 1.0 mg/kg/injection, schedule: Q01DX009 (ip), vehicle: other); 86 % of control (dose: 1.5 mg/kg/injection, schedule: Q01DX009 (ip), vehicle: acid diluted with saline).

As for `CCOC(=O)c1cc(CC)sc1N`, the T/C under setting [7] was 90 % of control and the T/C under setting [8] is 90 % of control.

In the case of `COC(=O)CCC(N)C(=O)NC(Cc1ccccc1)C(=O)NC(C)C(=O)NC1C(O)OC(CO)C(O)C1O` (stereo not drawn), the T/C (dose: 60.0 mg/kg/injection, schedule: Q01DX005 (ip), vehicle: saline) was 99 % of control; the T/C (dose: 120.0 mg/kg/injection, schedule: Q01DX005 (ip), vehicle: saline) is 98 % of control; the T/C (dose: 240.0 mg/kg/injection, schedule: Q01DX005 (ip), vehicle: saline) is 99 % of control.

Consider `CC1(C)OCC(C2OC(C)(C)OC2/C=C2/CC(=O)NC2=O)O1` (stereo not drawn), for which the T/C was 100 % of control and 107 % of control (dose: 50.0 mg/kg/injection, schedule: Q01DX009 (ip), vehicle: Klucel (hydroxypropylcellulose) (HPC)); 100 % of control and 120 % of control (dose: 100.0 mg/kg/injection, schedule: Q01DX009 (ip), vehicle: Klucel (hydroxypropylcellulose) (HPC)); 102 % of control and 122 % of control (dose: 200.0 mg/kg/injection, schedule: Q01DX009 (ip), vehicle: Klucel (hydroxypropylcellulose) (HPC)); 116 % of control (dose: 400.0 mg/kg/injection, schedule: Q01DX009 (ip), vehicle: Klucel (hydroxypropylcellulose) (HPC)).
